This note sets out measurements from ChEMBL document CHEMBL3352247, “Synthesis and antimycobacterial evaluation of 5-alkylamino-N-phenylpyrazine-2-carboxamides” (Bioorg Med Chem, 2015).

In test [1] the test system is Staphylococcus aureus. In words: Antibacterial activity against Staphylococcus aureus CCM 4516/08 after 24 to 48 hrs by broth microdilution method. The test is classed as functional, organism-based.
In another test the test system is Escherichia coli. Put plainly: Antibacterial activity against Escherichia coli CCM 4517 after 24 to 48 hrs by broth microdilution method. It counts as functional, organism-based.
The next test has as its system Pseudomonas aeruginosa. Put plainly: Antibacterial activity against Pseudomonas aeruginosa CCM 1961 after 24 to 48 hrs by broth microdilution method. The test is classed as functional, organism-based. In general terms: In broth dilution the organism is exposed to a series of concentrations in liquid medium.
Test [2] concerns Staphylococcus aureus. Put plainly: Antibacterial activity against methicillin-resistant Staphylococcus aureus H 5996/08 clinical isolate after 24 to 48 hrs by broth microdilution method. The test is classed as functional, organism-based.
Test [3] has as its system Staphylococcus epidermidis. Put plainly: Antibacterial activity against Staphylococcus epidermidis H 6966/08 clinical isolate after 24 to 48 hrs by broth microdilution method. It counts as functional, organism-based.
Test [4] has as its system Enterococcus sp. In words: Antibacterial activity against Enterococcus sp. J 14365/08 clinical isolate after 24 to 48 hrs by broth microdilution method. It counts as functional, organism-based.
For test [5], the system named is Klebsiella pneumoniae. Put plainly: Antibacterial activity against Klebsiella pneumoniae D 11750/08 clinical isolate after 24 to 48 hrs by broth microdilution method. It counts as functional, organism-based.
Test [6] relates to Klebsiella pneumoniae. Put plainly: Antibacterial activity against ESBL-positive Klebsiella pneumoniae J 14368/08 clinical isolate after 24 to 48 hrs by broth microdilution method. The test is classed as functional, organism-based.
The next test has as its system Candida albicans. In words: Antifungal activity against Candida albicans ATCC 44859 after 24 to 48 hrs by two-fold dilution method. It counts as functional, organism-based.
The next test has as its system Candida tropicalis. Put plainly: Antifungal activity against Candida tropicalis 156 after 24 to 48 hrs by two-fold dilution method. The test is classed as functional, organism-based.
In a further test the test system is Pichia kudriavzevii. Put plainly: Antifungal activity against Candida krusei E28 after 24 to 48 hrs by two-fold dilution method. It counts as functional, organism-based.
The next test relates to Nakaseomyces glabratus. Put plainly: Antifungal activity against Candida glabrata 20/I after 24 to 48 hrs by two-fold dilution method. The test is classed as functional, organism-based.
A further test concerns Trichosporon asahii. In words: Antifungal activity against Trichosporon asahii 1188 after 24 to 48 hrs by two-fold dilution method. The test is classed as functional, organism-based.
The test system of a further test is Aspergillus fumigatus. Put plainly: Antifungal activity against Aspergillus fumigatus 231 after 24 to 48 hrs by two-fold dilution method. The test is classed as functional, organism-based.
In another test the test system is Lichtheimia corymbifera. Put plainly: Antifungal activity against Absidia corymbifera 272 after 24 to 48 hrs by two-fold dilution method. It counts as functional, organism-based.
Test [7] has as its system Trichophyton mentagrophytes. Put plainly: Antifungal activity against Trichophyton mentagrophytes 445 after 72 to 120 hrs by two-fold dilution method. It counts as functional, organism-based.
Test [8] relates to Mycobacterium tuberculosis. Put plainly: Antimycobacterial activity against Mycobacterium tuberculosis H37Rv CNCTC My 331/88 after 10 to 14 days by AlamarBlue assay. The test is classed as functional.
Another test relates to Mycobacterium kansasii. Put plainly: Antimycobacterial activity against Mycobacterium kansasii CNCTC My 235/80 after 5 to 7 days by AlamarBlue assay. The test is classed as functional. For orientation: Resazurin is reduced to fluorescent resorufin, in cell work by metabolically active cells.
Test [9] can be described thus: Antimycobacterial activity against Mycobacterium avium subsp. avium Chester CNCTC My 80/72 after 5 days by AlamarBlue assay. It counts as functional. Particulars: Chester CNCTC My 80/72, 120 h.
Test [10] has as its system Enterococcus sp. Put plainly: Antibacterial activity against Enterococcus sp. after 24 to 48 hrs by broth microdilution method. The test is classed as functional.

As usually defined, the MIC is the lowest concentration that inhibits growth of the organism. The low end stands for inhibition by little substance, the high end for a need for much substance.

In brackets after ≈: the same amount, converted by molar mass. Activity calls are given as the source filed them. No cut-off for these calls is given here.

Consider `CCCNc1cnc(C(=O)Nc2ccccc2Cl)cn1`, for which the outcome (in the test on Staphylococcus aureus [1]; with Escherichia coli; with Pseudomonas aeruginosa; in the test on Staphylococcus aureus [2]; in test [3]; in the test on Enterococcus sp. [4]) was inactive. In addition, the result in the test with Klebsiella pneumoniae [5], with Klebsiella pneumoniae [6], with Candida albicans, with Candida tropicalis, in the test on Pichia kudriavzevii and in the test with Nakaseomyces glabratus was inactive. Also, the outcome (in the test on Trichosporon asahii; in the test on Aspergillus fumigatus; with Lichtheimia corymbifera; in test [7]) was inactive. The MIC (in test [8]; in the test on Mycobacterium kansasii; in [9]) was more than 100 µg/mL in each case. For the same compound, the outcome with Enterococcus sp. [10] was Active.
In the case of `CCCCCCCCNc1cnc(C(=O)Nc2ccccc2)cn1`, the result (in the test on Staphylococcus aureus [1]; in the test with Escherichia coli; in the test with Pseudomonas aeruginosa; with Staphylococcus aureus [2]; in test [3]; in the test on Enterococcus sp. [4]) was inactive. Moreover, the result in the test with Klebsiella pneumoniae [5], in the test with Klebsiella pneumoniae [6], in the test with Candida albicans, in the test on Candida tropicalis, in the test on Pichia kudriavzevii and in the test with Nakaseomyces glabratus was inactive. Moreover, the result (in the test with Trichosporon asahii; in the test with Aspergillus fumigatus; in the test on Lichtheimia corymbifera; in test [7]) was inactive. Further, the MIC in test [8] was 9.6 µM; against Mycobacterium kansasii, more than 100 µg/mL; in [9], more than 100 µg/mL; against Enterococcus sp. [10] it was 62.5 µM (≈ 20.4 µg/mL).
`CCCCCNc1cnc(C(=O)Nc2ccccc2)cn1`: the outcome (with Staphylococcus aureus [1]; in the test with Escherichia coli; with Pseudomonas aeruginosa; with Staphylococcus aureus [2]; in test [3]; in the test on Enterococcus sp. [4]) was inactive. The outcome with Klebsiella pneumoniae [5], in the test on Klebsiella pneumoniae [6], with Candida albicans, with Candida tropicalis, in the test with Pichia kudriavzevii and in the test with Nakaseomyces glabratus was inactive. Also, the outcome (with Trichosporon asahii; with Aspergillus fumigatus; with Lichtheimia corymbifera; in [7]) was inactive. For the same compound, the MIC is 11 µM in test [8], 11 µM against Mycobacterium kansasii and more than 100 µg/mL in test [9]. The outcome in the test with Enterococcus sp. [10] was Active.
